What was measured:
Assay type in all cases: in vivo
[1] = system: directly sowed Oryza sativa; assay: Test Example 3: effect on crop by application to foliage (Wagner pot, water depth 0.1-0.5 cm); settings: Nineteenth Table; application to foliage; application herbicide amount 320 g/ha
Summary of the method: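 Plants are raised 14 days from seed in flooded-surface Wagner pots at 25–30 °C, sprayed on stems and leaves with diluted emulsion at a predetermined rate, and rated three weeks on using a 0–5 herbicidal-ratio scale (5 ≥90%).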

[2] = system: Scirpus juncoides; assay: Test Example 2: herbicidal activity, application during weed generation in submerged conditions; settings: Eighteenth Table; application herbicide amount 320 g/ha
Summary of the method: (§1)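 Scored three weeks post-application on a 0–5 scale (5: ≥90% herbicidal ratio, almost withered; 0: ≤5%). Plants raised from mixed-sown seed in submerged alluvial soil (4 cm water), 25–30 °C greenhouse; water-diluted emulsion applied onto water surface at one- to two-leaf stage, dose in g/ha.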

[3] = system: Monochoria vaginalis; assay: as above; settings: Eighteenth Table; application herbicide amount 320 g/ha
Summary of the method: as §1

[4] = system: Echinochloa oryzacola Vasing.; assay: as above; settings: Eighteenth Table; application herbicide amount 320 g/ha
Summary of the method: as §1

[5] = system: transplanted Oryza sativa; assay: Test Example 1: effect on crop, application before weed generation in submerged conditions; settings: Seventeenth Table; for a: transplanted Oryza sativa (effect on crop grade): Application herbicide amount 320 g/ha; for a (transplanted Oryza sativa) effect on crop grade: application herbicide amount 320 g/ha
Summary of the method: (§2)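 Pre-emergence water-surface application under 4 cm flooding, same day as sowing, with rice transplanted at 2.5 leaf stage. Dose given as g/ha. Plants grown at 25° C. to 30° C. and rated three weeks later on a 0 (≤5%) to 5 (≥90%) herbicidal-ratio scale.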

[6] = system: Scirpus juncoides; assay: Test Example 1: herbicidal activity, application before weed generation in submerged conditions; settings: Seventeenth Table; for B: Scirpus juncoides (herbicidal effect grade): Application herbicide amount 320 g/ha; for B (Scirpus juncoides) herbicidal ratio grade: application herbicide amount 320 g/ha
Summary of the method: as §2

[7] = system: Monochoria vaginalis; assay: as above; settings: Seventeenth Table; for C: Monochoria vaginalis (herbicidal effect grade): Application herbicide amount 320 g/ha; for C (Monochoria vaginalis) herbicidal ratio grade: application herbicide amount 320 g/ha
Summary of the method: as §2

| Structure (SMILES) | b (effect on crop grade) [1] | B (Scirpus juncoides) herbicidal ratio grade [2] | C (Monochoria vaginalis) herbicidal ratio grade [3] | A (Echinochloa oryzicola Vasing.) herbicidal ratio grade [4] | a: transplanted Oryza sativa (effect on crop grade) [5] | B: Scirpus juncoides (herbicidal effect grade) [6] | C: Monochoria vaginalis (herbicidal effect grade) [7] | a (transplanted Oryza sativa) effect on crop grade [5] | B (Scirpus juncoides) herbicidal ratio grade [6] | C (Monochoria vaginalis) herbicidal ratio grade [7] |
| --- | --- | --- | --- | --- | --- | --- | --- | --- | --- | --- |
| Cc1nnc(NC(=O)c2ccc(C(F)(F)F)n3c(CC(=O)NC(C)C)nnc23)o1 [1-061] | 1 (Herbicidal ratio of 5% or more and less than 20%) | 1 (Herbicidal ratio of 5% or more and less than 20%) | 1 (Herbicidal ratio of 5% or more and less than 20%) | 0 (Herbicidal ratio of 5% or less (almost no effect)) |  |  |  |  |  |  |
| C=CCc1nnc2c(C(=O)Nc3nnco3)ccc(C(F)(F)F)n12 [1-158] |  | 3 (Herbicidal ratio of 40% or more and less than 70%) | 0 (Herbicidal ratio of 5% or less (almost no effect)) | 2 (Herbicidal ratio of 20% or more and less than 40%) | 0 (Herbicidal ratio of 5% or less (almost no effect)) | 4 (Herbicidal ratio of 70% or more and less than 90%) | 0 (Herbicidal ratio of 5% or less (almost no effect)) |  |  |  |
| Cc1nnc(NC(=O)c2ccc(C(F)(F)F)n3c(CC(F)(F)F)nnc23)o1 [1-162] |  | 1 (Herbicidal ratio of 5% or more and less than 20%) | 0 (Herbicidal ratio of 5% or less (almost no effect)) | 3 (Herbicidal ratio of 40% or more and less than 70%) | 0 (Herbicidal ratio of 5% or less (almost no effect)) | 2 (Herbicidal ratio of 20% or more and less than 40%) | 0 (Herbicidal ratio of 5% or less (almost no effect)) |  |  |  |
| C#CCN(C)c1nnc2c(C(=O)Nc3nnco3)ccc(C(F)(F)F)n12 [1-163] |  |  |  | 4 (Herbicidal ratio of 70% or more and less than 90%) | 2 (Herbicidal ratio of 20% or more and less than 40%) | 4 (Herbicidal ratio of 70% or more and less than 90%) | 4 (Herbicidal ratio of 70% or more and less than 90%) |  |  |  |
| CN(CCC#N)c1nnc2c(C(=O)Nc3nnco3)ccc(C(F)(F)F)n12 [1-164] |  | 4 (Herbicidal ratio of 70% or more and less than 90%) | 4 (Herbicidal ratio of 70% or more and less than 90%) | 4 (Herbicidal ratio of 70% or more and less than 90%) | 3 (Herbicidal ratio of 40% or more and less than 70%) | 5 (Herbicidal ratio of 90% or more (almost completely withered)) | 4 (Herbicidal ratio of 70% or more and less than 90%) |  |  |  |
| C=CCN(C)c1nnc2c(C(=O)Nc3nnc(C)o3)ccc(C(F)(F)F)n12 [1-166] | 2 (Herbicidal ratio of 20% or more and less than 40%) | 3 (Herbicidal ratio of 40% or more and less than 70%) |  | 2 (Herbicidal ratio of 20% or more and less than 40%) | 0 (Herbicidal ratio of 5% or less (almost no effect)) | 3 (Herbicidal ratio of 40% or more and less than 70%) | 2 (Herbicidal ratio of 20% or more and less than 40%) |  |  |  |
| Cc1nnc(NC(=O)c2ccc(C(F)(F)F)n3c(CC#N)nnc23)o1 [1-168] | 3 (Herbicidal ratio of 40% or more and less than 70%) | 2 (Herbicidal ratio of 20% or more and less than 40%) |  | 2 (Herbicidal ratio of 20% or more and less than 40%) |  |  |  |  |  |  |
| COCCc1nnc2c(C(=O)Nc3nnc(C)o3)ccc(C(F)(F)F)n12 [1-173] | 2 (Herbicidal ratio of 20% or more and less than 40%) | 2 (Herbicidal ratio of 20% or more and less than 40%) | 2 (Herbicidal ratio of 20% or more and less than 40%) | 3 (Herbicidal ratio of 40% or more and less than 70%) |  |  |  |  |  |  |
| Cn1nnnc1NC(=O)c1ccc(C(F)(F)F)n2c(SC3CCCC3)nnc12 [2-096] |  | 3 (Herbicidal ratio of 40% or more and less than 70%) | 3 (Herbicidal ratio of 40% or more and less than 70%) | 3 (Herbicidal ratio of 40% or more and less than 70%) | 3 (Herbicidal ratio of 40% or more and less than 70%) | 5 (Herbicidal ratio of 90% or more (almost completely withered)) | 4 (Herbicidal ratio of 70% or more and less than 90%) |  |  |  |
| Cn1nnnc1NC(=O)c1ccc(C(F)(F)F)n2c(SCc3ccc(Cl)nc3)nnc12 [2-097] |  | 2 (Herbicidal ratio of 20% or more and less than 40%) | 2 (Herbicidal ratio of 20% or more and less than 40%) | 0 (Herbicidal ratio of 5% or less (almost no effect)) | 1 (Herbicidal ratio of 5% or more and less than 20%) | 4 (Herbicidal ratio of 70% or more and less than 90%) | 3 (Herbicidal ratio of 40% or more and less than 70%) |  |  |  |
| CCSc1nnc2c(C(=O)Nc3nnnn3CCOC)ccc(C(F)(F)F)n12 [2-098] |  | 4 (Herbicidal ratio of 70% or more and less than 90%) | 3 (Herbicidal ratio of 40% or more and less than 70%) | 5 (Herbicidal ratio of 90% or more (almost completely withered)) |  |  |  | 2 (Herbicidal ratio of 20% or more and less than 40%) | 5 (Herbicidal ratio of 90% or more (almost completely withered)) | 4 (Herbicidal ratio of 70% or more and less than 90%) |
| CCSc1nnc2c(C(=O)Nc3ncnn3C)ccc(C(F)(F)F)n12 [4-003] |  |  |  |  |  |  |  | 0 (Herbicidal ratio of 5% or less (almost no effect)) | 2 (Herbicidal ratio of 20% or more and less than 40%) | 0 (Herbicidal ratio of 5% or less (almost no effect)) |
